From US4727086A, “Certain anti-hypertensive 2,3-dihydrobenzofuran compounds” (Adir et Compagnie, priority 1985, dated 1988)

Tests used:
[1] = tested on: coronary artery of the dog; assay: Contraction-inhibiting activity on the coronary artery of the dog (in vitro); format: cell-based; conditions: Canis lupus familiaris, 0.25 h, contraction induced by 100 mM potassium ions, reactivation with 10 and 20 mM calcium ions, 15-minute action, read-out: ED50 (dose capable of inhibiting 50% of the maximum contraction)
Method: Assessment of the Contraction-Inhibiting Activity on the Coronary Artery of the Dog
The inhibiting activity on contraction induced by calcium ions was assessed in vitro on the coronary artery of the dog according to the method described by Godfraind and Miller in Circ. Res. (1983) 52, No. 2, pp. 81-91. Contraction was induced by a solution containing 100 millimoles of potassium ions per liter. The compounds to be examined were then introduced in cumulative doses and after a 15-minute period of action the preparation was reactivated with solutions having a calcium ion concentration of 10 and 20 mM. The dose capable of inhibiting 50% (ED50) of the maximum contraction was assessed.

mongrel dogs = assay: Haemodynamic effects in vivo in anaesthetised dogs
Method: Haemodynamic Effects In Vivo
The haemodynamic effects were assessed in mongrel dogs weighing from 25 to 30 kg which had been anaesthetised with sodium phenobarbital, had undergone a thoractomy at the 5th left intercostal space and carried electromagnetic rings at the level of the circumflex branch of the left coronary artery and at the level of the ascending aorta. The maximum bradycardic effect (E.B. max.), the mean coronary resistances (C.V.R.M.), the coronary output (C.B.F.M.), and the arterial pressure (P.A.) were measured after the intravenous injection of a dose of 300 μg/kg and 1000 μg/kg of the compounds of Examples 1 and 13.
Table 5 summarises the various results which are expressed as percentage increases (+%) or percentage decreases (-%) in the values in relation to those observed before treatment.

SMILES | IC50 [1] [µM] | other results
CCN(CC)CCCC1(c2ccccc2)COc2ccc(OC)cc21 (centres unmarked) [Example 10, 5-methoxy-3-phenyl-3-[3-(N-diethylamino)-propyl]-2,3-dihydrobenzofuran] | 6.1 | –
COc1ccc2c(c1)C(CCCN(C)CCc1ccc(OC)c(OC)c1)(c1ccccc1)CO2.O=P(O)(O)O (centres unmarked) [Example 1, 5-methoxy-3-phenyl-3-[3-(N-(3,4-dimethoxyphenethyl)-N-methylamino)-propyl]-2,3-dihydrobenzofuran phosphate] | 1.7 | CBFM (coronary output), % change vs before treatment (mongrel dogs; 300 μg/kg intravenous): +51%; CRVM (mean coronary resistances), % change vs before treatment (mongrel dogs; 300 μg/kg intravenous): -39%; EB max (maximum bradycardic effect), % change vs before treatment (mongrel dogs; 300 μg/kg intravenous): -7%; PA (arterial pressure), % change vs before treatment (mongrel dogs; 300 μg/kg intravenous): -9%; CBFM (coronary output), % change vs before treatment (mongrel dogs; 1000 μg/kg intravenous): +85%; CRVM (mean coronary resistances), % change vs before treatment (mongrel dogs; 1000 μg/kg intravenous): -57%; EB max (maximum bradycardic effect), % change vs before treatment (mongrel dogs; 1000 μg/kg intravenous): -13%; PA (arterial pressure), % change vs before treatment (mongrel dogs; 1000 μg/kg intravenous): -21%
COc1ccc(CCN(C)CCCC2(c3ccccc3)COc3ccc(Cl)cc32)cc1OC (centres unmarked) [Example 4, 5-chloro-3-phenyl-3-[3-(N-(3,4-dimethoxyphenethyl)-N-methylamino)-propyl]-2,3-dihydrobenzofuran] | 30 | –
COc1cccc(N2CCN(CCCC3(c4ccccc4)COc4ccc(Cl)cc43)CC2)c1 (centres unmarked) [Example 2, 5-chloro-3-phenyl-3-[3-(4-(3-methoxyphenyl)-1-piperazinyl)-propyl]-2,3-dihydrobenzofuran] | 10 | –
COc1ccc2c(c1)C(CCCN(C)CCc1ccc(OC)c(OC)c1)(c1ccc(C)cc1)CO2 (centres unmarked) [Example 5, 5-methoxy-3-(4-methylphenyl)-3-[3-(N-(3,4-dimethoxyphenethyl)-N-methylamino)-propyl]-2,3-dihydrobenzofuran] | 26 | –
COc1ccc2c(c1)C(CCCN1CCc3cc(OC)c(OC)cc3C1)(c1ccccc1)CO2 (centres unmarked) [Example 7, 5-methoxy-3-phenyl-3-[3-(6,7-dimethoxy-1,2,3,4-tetrahydro-2-isoquinolyl)-propyl]-2,3-dihydrobenzofuran] | 6.3 | –
COc1ccc2c(c1)C(CCCN(C)CCc1ccc(OC)c(OC)c1)(c1ccccc1)C(O)O2 (centres unmarked) [Example 11, 2-Hydroxy-5-methoxy-3-phenyl-3-[3-(N-(3,4-dimethoxyphenethyl)-N-methylamino)-propyl]-2,3-dihydrobenzofuran phosphate] | 6.2 | –
COc1ccc2c(c1)C(CCCN1CCN(C)CC1)(c1ccccc1)CO2 (centres unmarked) [Example 9, 5-methoxy-3-phenyl-3-[3-(4-methyl-1-piperazinyl)-propyl]-2,3-dihydrobenzofuran] | 35 | –
COc1ccc(CCN(C)CCCC2(c3ccccc3)COc3cc(OC)c(OC)cc32)cc1OC (centres unmarked) [Example 3, 5,6-dimethoxy-3-phenyl-3-[3-(N-(3,4-dimethoxyphenethyl)-N-methylamino)-propyl]-2,3-dihydrobenzofuran] | 90 | –
COc1ccc2c(c1)C(CCCN(C)CCc1ccccc1)(c1ccccc1)CO2 (centres unmarked) [Example 8, 5-methoxy-3-phenyl-3-[3-(N-phenethyl-N-methylamino)-propyl]-2,3-dihydrobenzofuran] | 8.4 | –
COc1ccc2c(c1)C(CCCN(C)C1Cc3cc(OC)c(OC)cc3C1)(c1ccccc1)CO2 (centres unmarked) [Example 6, 5-methoxy-3-phenyl-3-[3-(N-(5,6-dimethoxy-2-indanyl)-N-methylamino)-propyl]-2,3-dihydrobenzofuran] | 10 | –

The next lines start with results.

IC50 [1] [µM] | SMILES | other results
50 | c1ccc(C2(CCCN3CCOCC3)COc3ccccc32)cc1 (centres unmarked) [Example 15, 3-phenyl-3-[3-(4-morpholinyl)-propyl]-2,3-dihydrobenzofuran] | –
4 | COc1ccc(CCN(C)CCCC2(c3ccccc3)COc3ccccc32)cc1OC.O=P(O)(O)O (centres unmarked) [Example 13, 3-phenyl-3-[3-(N-(3,4-dimethoxyphenethyl)-N-methylamino)-propyl]-2,3-dihydrobenzofuran phosphate] | CBFM (coronary output), % change vs before treatment (mongrel dogs; 300 μg/kg intravenous): +31%; CRVM (mean coronary resistances), % change vs before treatment (mongrel dogs; 300 μg/kg intravenous): -36%; EB max (maximum bradycardic effect), % change vs before treatment (mongrel dogs; 300 μg/kg intravenous): -8%; PA (arterial pressure), % change vs before treatment (mongrel dogs; 300 μg/kg intravenous): -16%; CBFM (coronary output), % change vs before treatment (mongrel dogs; 1000 μg/kg intravenous): +59%; CRVM (mean coronary resistances), % change vs before treatment (mongrel dogs; 1000 μg/kg intravenous): -60%; EB max (maximum bradycardic effect), % change vs before treatment (mongrel dogs; 1000 μg/kg intravenous): -10%; PA (arterial pressure), % change vs before treatment (mongrel dogs; 1000 μg/kg intravenous): -31%
8 | COc1ccc(CCN(C)CCCC2(c3ccccc3)c3cc(OC)c(OC)cc3OC2O)cc1OC (centres unmarked) [Example 12, 2-hydroxy-5,6-dimethoxy-3-phenyl-3-[3-(N-(3,4-dimethoxyphenethyl)-N-methylamino)-propyl]-2,3-dihydrobenzofuran phosphate] | –
9 | c1ccc(C2(CCCN3CCc4ccsc4C3)COc3ccccc32)cc1 (centres unmarked) [Example 14, 3-phenyl-3-[3-(1,2,6,7-tetrahydro-(2,3-c)-thieno-1-pyridinyl)-propyl]-2,3-dihydrobenzofuran] | –
9 | COc1cccc(N2CCN(CCCC3(c4ccccc4)COc4ccccc43)CC2)c1 (centres unmarked) [Example 16, 3-phenyl-3-[3-(4-(3-methoxyphenyl)-1-piperazinyl)-propyl]-2,3-dihydrobenzofuran] | –
